Measured values: PMC5218480 (PLoS ONE, 2017)

Tested on: MV-4-11 cells
Assay: Gene expression microarray analysis (Affymetrix PrimeView) and GSEA
Type: cell-based, human
Set-up: RFU PODN (11730768_x_at) / Fold change /veh PODN (11730768_x_at) / RFU LINC00158 (11744669_a_at) / Fold change /veh LINC00158 (11744669_a_at) / RFU DUSP10 (11751237_a_at) / Fold change /veh DUSP10 (11751237_a_at) / RFU ID3 (11757404_x_at) / Fold change /veh ID3 (11757404_x_at) / RFU PLEKHG5 (11737974_s_at) / Fold change /veh PLEKHG5 (11737974_s_at) / RFU LRRC4B (11730491_at) / Fold change /veh LRRC4B (11730491_at) / RFU GIMAP4 (11747438_a_at) / Fold change /veh GIMAP4 (11747438_a_at) / RFU KRT8 (11758183_x_at) / Fold change /veh KRT8 (11758183_x_at) / RFU CNN1 (11734310_a_at) / Fold change /veh CNN1 (11734310_a_at) / RFU VPS37D (11726825_at) / Fold change /veh VPS37D (11726825_at) / RFU C10orf10 (11716522_x_at) / Fold change /veh C10orf10 (11716522_x_at) / RFU KIR2DL2 /// KIR2DL4 /// KIR2DL5A /// KIR2DL5B /// KIR2DS1 /// KIR2DS2 /// KIR2DS3 /// KIR2DS4 /// KIR3DL3 /// KIR3DL3 /// KIR3DS1 (11738374_at) / Fold change /veh KIR2DL2 /// KIR2DL4 /// KIR2DL5A /// KIR2DL5B /// KIR2DS1 /// KIR2DS2 /// KIR2DS3 /// KIR2DS4 /// KIR3DL3 /// KIR3DL3 /// KIR3DS1 (11738374_at) / RFU C1QL1 (11718748_at) / Fold change /veh C1QL1 (11718748_at) / RFU TMPRSS4 (11747572_a_at) / Fold change /veh TMPRSS4 (11747572_a_at) / RFU HAMP (11756126_x_at) / Fold change /veh HAMP (11756126_x_at) / RFU RNFT2 (11725882_a_at) / Fold change /veh RNFT2 (11725882_a_at) / RFU NR4A2 (11747474_a_at) / Fold change /veh NR4A2 (11747474_a_at) / RFU ABCC12 (11746883_a_at) / Fold change /veh ABCC12 (11746883_a_at) / RFU TMEM136 (11760407_x_at) / Fold change /veh TMEM136 (11760407_x_at) / RFU CLDN22 /// WWC2 (11732394_at) / Fold change /veh CLDN22 /// WWC2 (11732394_at) / RFU HLA-DPB1 (11760878_x_at) / Fold change /veh HLA-DPB1 (11760878_x_at) / RFU SPINT1 (11716480_a_at) / Fold change /veh SPINT1 (11716480_a_at) / RFU GAP43 (11754022_s_at) / Fold change /veh GAP43 (11754022_s_at) / RFU A4GNT (11735810_at) / Fold change /veh A4GNT (11735810_at) / RFU PRB3 (11715151_x_at) / Fold change /veh PRB3 (11715151_x_at) / RFU TUBB4B (11761932_at) / Fold change /veh TUBB4B (11761932_at) / RFU CAPN14 (11732068_a_at) / Fold change /veh CAPN14 (11732068_a_at) / RFU TMCC2 (11721928_a_at) / Fold change /veh TMCC2 (11721928_a_at) / RFU IRGQ (11745062_a_at) / Fold change /veh IRGQ (11745062_a_at) / RFU FAM174B (11720279_a_at) / Fold change /veh FAM174B (11720279_a_at) / RFU TMPRSS4 (11748680_a_at) / Fold change /veh TMPRSS4 (11748680_a_at) / RFU FAM212B (11763350_a_at) / Fold change /veh FAM212B (11763350_a_at) / RFU PLEKHG5 (11743358_a_at) / Fold change /veh PLEKHG5 (11743358_a_at) / RFU ZSCAN30 (11745921_a_at) / Fold change /veh ZSCAN30 (11745921_a_at) / RFU CMKLR1 (11741424_a_at) / Fold change /veh CMKLR1 (11741424_a_at) / RFU LOC101060620 /// MAPK8IP1 (11723275_at) / Fold change /veh LOC101060620 /// MAPK8IP1 (11723275_at) / RFU SPTSSB (11747773_x_at) / Fold change /veh SPTSSB (11747773_x_at) / RFU PRSS12 (11739890_at) / Fold change /veh PRSS12 (11739890_at) / RFU BIN1 (11741810_x_at) / Fold change /veh BIN1 (11741810_x_at) / RFU WNT11 (11732464_a_at) / Fold change /veh WNT11 (11732464_a_at) / RFU C10orf10 (11716521_a_at) / Fold change /veh C10orf10 (11716521_a_at) / RFU C5orf56 (11738089_at) / Fold change /veh C5orf56 (11738089_at) / RFU CYB561 (11721691_x_at) / Fold change /veh CYB561 (11721691_x_at) / RFU ANKRD19P (11752326_a_at) / Fold change /veh ANKRD19P (11752326_a_at) / RFU OR2T12 /// OR2T33 /// OR2T8 (11738714_s_at) / Fold change /veh OR2T12 /// OR2T33 /// OR2T8 (11738714_s_at) / RFU VCAN (11748164_a_at) / Fold change /veh VCAN (11748164_a_at) / RFU JSRP1 (11732532_at) / Fold change /veh JSRP1 (11732532_at) / RFU KRTAP10-11 (11738290_x_at) / Fold change /veh KRTAP10-11 (11738290_x_at) / RFU MYO3A (11730013_a_at) / Fold change /veh MYO3A (11730013_a_at) / RFU EBF3 (11725865_a_at) / Fold change /veh EBF3 (11725865_a_at) / RFU CAMK2N1 (11719241_x_at) / Fold change /veh CAMK2N1 (11719241_x_at) / RFU C5orf56 (11738088_a_at) / Fold change /veh C5orf56 (11738088_a_at) / RFU OLFML3 (11715873_a_at) / Fold change /veh OLFML3 (11715873_a_at) / RFU LOC100653217 /// NTM (11731650_a_at) / Fold change /veh LOC100653217 /// NTM (11731650_a_at) / RFU MAPK11 (11762145_a_at) / Fold change /veh MAPK11 (11762145_a_at) / RFU FIZ1 (11724087_x_at) / Fold change /veh FIZ1 (11724087_x_at) / RFU OASL (11726364_x_at) / Fold change /veh OASL (11726364_x_at) / RFU SOX15 (11748057_x_at) / Fold change /veh SOX15 (11748057_x_at) / RFU CD79A (11719716_a_at) / Fold change /veh CD79A (11719716_a_at) / RFU HIST1H1D (11736915_at) / Fold change /veh HIST1H1D (11736915_at) / RFU CASKIN2 (11723855_a_at) / Fold change /veh CASKIN2 (11723855_a_at) / RFU LOC730098 (11760151_x_at) / Fold change /veh LOC730098 (11760151_x_at) / RFU OR4N2 (11742367_at) / Fold change /veh OR4N2 (11742367_at) / RFU PRRT2 (11749266_a_at) / Fold change /veh PRRT2 (11749266_a_at) / RFU SNX32 (11753110_a_at) / Fold change /veh SNX32 (11753110_a_at) / RFU CDHR5 (11726645_a_at) / Fold change /veh CDHR5 (11726645_a_at) / RFU RCAN1 (11760418_a_at) / Fold change /veh RCAN1 (11760418_a_at) / RFU FAM167A (11723789_a_at) / Fold change /veh FAM167A (11723789_a_at) / RFU FAM26E (11764081_at) / Fold change /veh FAM26E (11764081_at) / RFU ISYNA1 (11749810_s_at) / Fold change /veh ISYNA1 (11749810_s_at) / RFU ACY1 (11761880_at) / Fold change /veh ACY1 (11761880_at) / RFU 11764098_at / Fold change /veh 11764098_at / RFU SAMD14 (11745864_x_at) / Fold change /veh SAMD14 (11745864_x_at) / RFU NPB (11741838_a_at) / Fold change /veh NPB (11741838_a_at) / RFU TMPRSS6 (11731388_a_at) / Fold change /veh TMPRSS6 (11731388_a_at) / RFU KRTAP10-2 (11738614_at) / Fold change /veh KRTAP10-2 (11738614_at) / RFU ARHGAP8 /// PRR5-ARHGAP8 (11727945_x_at) / Fold change /veh ARHGAP8 /// PRR5-ARHGAP8 (11727945_x_at) / RFU KRTAP5-7 /// NADSYN1 (11734609_at) / Fold change /veh KRTAP5-7 /// NADSYN1 (11734609_at) / RFU RASL12 (11751679_a_at) / Fold change /veh RASL12 (11751679_a_at) / RFU CDKN2B (11736163_a_at) / Fold change /veh CDKN2B (11736163_a_at) / RFU PRF1 (11729649_at) / Fold change /veh PRF1 (11729649_at) / RFU, ZNF638 /// ZNF638-IT1 / Fold change vs veh, ZNF638 /// ZNF638-IT1 / RFU, PANK3 / Fold change vs veh, PANK3 / RFU, SH3YL1 / Fold change vs veh, SH3YL1 / RFU, ZEB2 / Fold change vs veh, ZEB2 / RFU, NRIP1 / Fold change vs veh, NRIP1 / RFU, PTTG1IP / Fold change vs veh, PTTG1IP / RFU, CAPN2 / Fold change vs veh, CAPN2 / RFU, MED14 / Fold change vs veh, MED14 / RFU, SNORA58 / Fold change vs veh, SNORA58 / RFU, C1orf63 / Fold change vs veh, C1orf63 / RFU, LRRFIP1 / Fold change vs veh, LRRFIP1 / RFU, NDUFAF7 / Fold change vs veh, NDUFAF7 / RFU, SLC12A2 / Fold change vs veh, SLC12A2 / RFU, IBTK / Fold change vs veh, IBTK / RFU, ESF1 / Fold change vs veh, ESF1 / Fold change vs veh, TMEM50B / RFU, TAOK1 / Fold change vs veh, TAOK1 / RFU, ACBD3 / Fold change vs veh, ACBD3 / RFU, TMA16 / Fold change vs veh, TMA16 / RFU, RWDD3 / Fold change vs veh, RWDD3 / RFU, BCAT1 / Fold change vs veh, BCAT1 / RFU, EDEM3 / Fold change vs veh, EDEM3 / RFU, TMEM33 / Fold change vs veh, TMEM33 / RFU, WDR75 / Fold change vs veh, WDR75 / RFU, AHCTF1 / Fold change vs veh, AHCTF1 / RFU, TFRC / Fold change vs veh, TFRC / RFU, ZDHHC17 / Fold change vs veh, ZDHHC17 / RFU, NOM1 / Fold change vs veh, NOM1 / RFU, ARL8B / Fold change vs veh, ARL8B / RFU, ZBTB11 / Fold change vs veh, ZBTB11 / RFU, TAMM41 / Fold change vs veh, TAMM41 / RFU, KIAA1704 /// LOC100996395 / Fold change vs veh, KIAA1704 /// LOC100996395 / RFU, ING1 / Fold change vs veh, ING1 / RFU, TRMT61B / Fold change vs veh, TRMT61B / RFU, FUBP3 / Fold change vs veh, FUBP3 / RFU, TP53 / Fold change vs veh, TP53 / RFU, TNKS2 / Fold change vs veh, TNKS2 / RFU, ZFP14 / Fold change vs veh, ZFP14 / RFU, ACTR2 / Fold change vs veh, ACTR2 / RFU, PPP3R1 / Fold change vs veh, PPP3R1 / RFU, PIK3R1 / Fold change vs veh, PIK3R1 / RFU, HNRNPA1 / Fold change vs veh, HNRNPA1 / RFU, RNF170 / Fold change vs veh, RNF170 / RFU, ZNF28 / Fold change vs veh, ZNF28 / RFU, RNGTT / Fold change vs veh, RNGTT / RFU, OGT / Fold change vs veh, OGT / RFU, BRD1 / Fold change vs veh, BRD1 / RFU, MARS / Fold change vs veh, MARS / RFU, ZNF655 / Fold change vs veh, ZNF655 / RFU, FAHD1 / Fold change vs veh, FAHD1 / RFU, BDP1 / Fold change vs veh, BDP1 / RFU, LRRCC1 / Fold change vs veh, LRRCC1 / RFU, ARID1A / Fold change vs veh, ARID1A / RFU, ZNF146 / Fold change vs veh, ZNF146 / RFU, ZNF330 / Fold change vs veh, ZNF330 / RFU, GPN3 / Fold change vs veh, GPN3 / RFU, C9orf123 / Fold change vs veh, C9orf123 / RFU, N4BP2L2 / Fold change vs veh, N4BP2L2 / RFU, ARFIP1 / Fold change vs veh, ARFIP1 / RFU, FAM179B / Fold change vs veh, FAM179B / RFU, BCL10 / Fold change vs veh, BCL10 / RFU, UHRF1BP1L / Fold change vs veh, UHRF1BP1L / RFU, BET1 / Fold change vs veh, BET1 / RFU, CNOT2 / Fold change vs veh, CNOT2 / RFU, ZNF268 / Fold change vs veh, ZNF268 / Fold change vs veh, ZNF507 / RFU, DGCR2 / Fold change vs veh, DGCR2 / RFU, WDSUB1 / Fold change vs veh, WDSUB1 / Fold change vs veh, HSP90B1 /// MIR3652 / RFU, ADSS / Fold change vs veh, ADSS / RFU, GK / Fold change vs veh, GK / RFU, ZNF148 / Fold change vs veh, ZNF148 / RFU, TAF9 / Fold change vs veh, TAF9 / RFU, SLC1A5 / Fold change vs veh, SLC1A5 / RFU, SLMO2 / Fold change vs veh, SLMO2 / RFU, ABCC4 / Fold change vs veh, ABCC4 / RFU, LOC101060439 /// RAP1B / Fold change vs veh, LOC101060439 /// RAP1B / RFU, RFX7 / Fold change vs veh, RFX7 / RFU, GTPBP10 / Fold change vs veh, GTPBP10 / RFU, CNEP1R1 / Fold change vs veh, CNEP1R1 / RFU, BIVM-ERCC5 /// ERCC5 / Fold change vs veh, BIVM-ERCC5 /// ERCC5 / RFU, ILF3 / Fold change vs veh, ILF3 / RFU 11762660_at / Fold change /veh 11762660_at / RFU VCAN (11757783_s_at) / Fold change /veh VCAN (11757783_s_at) / RFU DDX43 (11728927_at) / Fold change /veh DDX43 (11728927_at) / RFU KRT8 (11758188_x_at) / Fold change /veh KRT8 (11758188_x_at) / RFU NKD1 (11759106_at) / Fold change /veh NKD1 (11759106_at) / RFU SRD5A1 (11742802_a_at) / Fold change /veh SRD5A1 (11742802_a_at) / RFU TPSAB1 /// TPSB2 (11721975_s_at) / Fold change /veh TPSAB1 /// TPSB2 (11721975_s_at) / RFU GSTM3 (11746129_a_at) / Fold change /veh GSTM3 (11746129_a_at) / RFU IL23R (11737362_x_at) / Fold change /veh IL23R (11737362_x_at) / RFU TMEM51 (11727254_a_at) / Fold change /veh TMEM51 (11727254_a_at) / RFU PIWIL2 (11732686_x_at) / Fold change /veh PIWIL2 (11732686_x_at) / RFU ORM1 (11744905_x_at) / Fold change /veh ORM1 (11744905_x_at) / RFU CCDC152 (11743942_at) / Fold change /veh CCDC152 (11743942_at) / RFU ECM1 (11717891_a_at) / Fold change /veh ECM1 (11717891_a_at) / RFU IL23R (11748794_a_at) / Fold change /veh IL23R (11748794_a_at) / RFU TNFAIP8L3 (11732012_x_at) / Fold change /veh TNFAIP8L3 (11732012_x_at) / RFU MBOAT4 (11741988_at) / Fold change /veh MBOAT4 (11741988_at) / RFU 11764193_at / Fold change /veh 11764193_at / RFU TMEM53 (11763286_at) / Fold change /veh TMEM53 (11763286_at) / RFU MAGEB2 (11727129_at) / Fold change /veh MAGEB2 (11727129_at) / RFU TMEM200A (11744735_a_at) / Fold change /veh TMEM200A (11744735_a_at) / RFU CCDC152 (11751479_a_at) / Fold change /veh CCDC152 (11751479_a_at) / RFU FAM211A (11726209_a_at) / Fold change /veh FAM211A (11726209_a_at) / RFU RGS16 (11746705_a_at) / Fold change /veh RGS16 (11746705_a_at) / RFU VCAN (11755009_s_at) / Fold change /veh VCAN (11755009_s_at) / RFU RHOB (11743442_s_at) / Fold change /veh RHOB (11743442_s_at) / RFU RGS16 (11720943_a_at) / Fold change /veh RGS16 (11720943_a_at) / RFU RGS16 (11720944_at) / Fold change /veh RGS16 (11720944_at) / RFU, VPS4B / Fold change vs veh, VPS4B / RFU, CREB1 / Fold change vs veh, CREB1 / RFU, DNAJC13 / Fold change vs veh, DNAJC13 / RFU, GNAQ / Fold change vs veh, GNAQ / RFU, CDK5R1 / Fold change vs veh, CDK5R1 / RFU, ZRANB3 / Fold change vs veh, ZRANB3 / RFU, CUL4A / Fold change vs veh, CUL4A / RFU, CCNY / Fold change vs veh, CCNY / RFU, UFL1 / Fold change vs veh, UFL1 / RFU, COG3 / Fold change vs veh, COG3 / RFU, DIAPH2 / Fold change vs veh, DIAPH2 / RFU, SKA2 / Fold change vs veh, SKA2 / RFU, AFF3 / Fold change vs veh, AFF3 / RFU, LMF1 / Fold change vs veh, LMF1 / RFU, IPO11 / Fold change vs veh, IPO11 / RFU, DFFB / Fold change vs veh, DFFB / RFU, FOXP1 / Fold change vs veh, FOXP1 / RFU, CARD8 / Fold change vs veh, CARD8 / RFU, STRN3 / Fold change vs veh, STRN3 / RFU, ADK / Fold change vs veh, ADK / RFU, RASSF2 / Fold change vs veh, RASSF2 / RFU, WIPF1 / Fold change vs veh, WIPF1 / RFU, LARP1B / Fold change vs veh, LARP1B / RFU, RASA1 / Fold change vs veh, RASA1 / RFU, RB1 / Fold change vs veh, RB1 / RFU, PPFIA1 / Fold change vs veh, PPFIA1 / RFU, MAT2A / Fold change vs veh, MAT2A / RFU, CCT5 / Fold change vs veh, CCT5 / RFU, WDR92 / Fold change vs veh, WDR92 / RFU, CUX1 / Fold change vs veh, CUX1 / RFU, TTC7A / Fold change vs veh, TTC7A / RFU, TMEM135 / Fold change vs veh, TMEM135 / RFU, DEPTOR / Fold change vs veh, DEPTOR / RFU, CPM / Fold change vs veh, CPM / RFU, DNAJB6 / Fold change vs veh, DNAJB6 / RFU, CACNA2D3 / Fold change vs veh, CACNA2D3 / RFU, DTX4 / Fold change vs veh, DTX4 / RFU, TFCP2 / Fold change vs veh, TFCP2 / RFU, GMCL1 /// GMCL1P1 / Fold change vs veh, GMCL1 /// GMCL1P1 / RFU, AEBP2 / Fold change vs veh, AEBP2 / RFU, SNHG1 /// SNORD22 /// SNORD25 /// SNORD26 /// SNORD27 /// SNORD28 /// SNORD29 /// SNORD31 / Fold change vs veh, SNHG1 /// SNORD22 /// SNORD25 /// SNORD26 /// SNORD27 /// SNORD28 /// SNORD29 /// SNORD31 / Fold change (Aza/veh), C12orf56 (ProbeSet 11735607_a_at) / Fold change (ACY-1035/veh), C12orf56 (ProbeSet 11735607_a_at) / Fold change (Aza/veh), FGFR1OP (ProbeSet 11751329_s_at) / Fold change (ACY-1035/veh), FGFR1OP (ProbeSet 11751329_s_at) / Fold change (Aza/veh), VPS36 (ProbeSet 11739960_a_at) / Fold change (ACY-1035/veh), VPS36 (ProbeSet 11739960_a_at) / RFU SYPL1 (11715823_x_at) / Fold change /veh SYPL1 (11715823_x_at) / RFU IGFBP7 (11715501_s_at) / Fold change /veh IGFBP7 (11715501_s_at) / RFU REEP3 (11722064_at) / Fold change /veh REEP3 (11722064_at) / RFU IGLL1 (11728026_x_at) / Fold change /veh IGLL1 (11728026_x_at): dose or concentration left out as unconfirmed
Conditions: ProbeSet 11728443_a_at; LIST B

Nc1ncn([C@@H]2O[C@H](CO)[C@@H](O)[C@H]2O)c(=O)n1 [azacitidine]
RFU, TAOK1: 59.03 RFU
